Experimental findings from patent publication US9486506B2 (Novo Nordisk A/S, priority 2011, dated 2016) are described below.

Numbered stars: 1 amine (or outer) side, 2 acyl side, 3 side chain; on linkers, the order of the positions; unused ones are H or OH. Side chains are listed from the residue outwards. Peptide text beside a SMILES is read from it. * marks the point of attachment. C18 diacid = O=C(O)CCCCCCCCCCCCCCCCC(=O)*; γGlu = O=C(O)[C@H](CCC(=O)[*:2])N[*:1]; AEEA = NCCOCCOCC(=O)O

The nature of data set [1]: Assay (X) Chemical stability assessment by RP-UPLC. Format: physicochemical. The settings on record: pH 8.15, 14 days at 37° C. vs 5° C., 333 μM. Here is the method:
Chemical Stability Assessment
Lyophilized samples were dissolved in buffer (see below for detailed compositions) to a final concentration of 333 μM and a pH of 8.15, and were incubated for 14 days at 5° C. and 37° C. followed by RP-UPLC analysis. Purity was defined as the area percentage of the main peak in relation to the total area of all integrated peaks in each chromatogram. Purity loss after 14 days at 37° C. was determined as the difference in purity between the samples incubated at 5° C. and 37° C., divided by the purity of the sample after incubation for 14 days at 5° C.
RP-UPLC analysis was performed using a Waters BEH130 2.1 mm×150 mm, 1.7 μm column operated at 50° C. and a flow rate of 0.4 mL/min using a mobile phase system consisting of typically A: 50 mM Phosphate, 10 w/w % Acetonitrile pH 3 and B: 80 v/v Acetonitrile. UV-detection was performed at 215 nm. The typical gradient profile used for most of the samples is shown below.
For some individual analogues eluting at substantially different retention times compared with the majority of analogues, some adjustments to the gradient profile were made to better enable purity assessment comparison across samples. Also the composition of the channel B mobile phase component was in some of the analyses exchanged for a 90 v/v % Acetonitrile solvent solution in an attempt to better handle carry-over of material from one injection to the next in the sequence. This was however compensated for by recalculating the gradient profile appropriately.
Buffer: • 50 mM Dinatriumphosphatdihydrat • 184 mM Propylenglycol • 58 mM Phenol • pH adjusted to 8.15 with H3PO4. In cases where pH was adjusted to 8.15 after re-suspension of analogues, 0.2 M NaOH was used. Assay (XI) Pharmacokinetic Study in Minipigs

The target in another data set is T1, glucagon receptor (Homo sapiens, UniProt P47871).
T1 construct: expressed in transfected cells
The experiment in a line: Assay (I) Glucagon activity (cAMP biosensor, FLIPR). Format: cell-based.

T1 sequence (P47871 26-477): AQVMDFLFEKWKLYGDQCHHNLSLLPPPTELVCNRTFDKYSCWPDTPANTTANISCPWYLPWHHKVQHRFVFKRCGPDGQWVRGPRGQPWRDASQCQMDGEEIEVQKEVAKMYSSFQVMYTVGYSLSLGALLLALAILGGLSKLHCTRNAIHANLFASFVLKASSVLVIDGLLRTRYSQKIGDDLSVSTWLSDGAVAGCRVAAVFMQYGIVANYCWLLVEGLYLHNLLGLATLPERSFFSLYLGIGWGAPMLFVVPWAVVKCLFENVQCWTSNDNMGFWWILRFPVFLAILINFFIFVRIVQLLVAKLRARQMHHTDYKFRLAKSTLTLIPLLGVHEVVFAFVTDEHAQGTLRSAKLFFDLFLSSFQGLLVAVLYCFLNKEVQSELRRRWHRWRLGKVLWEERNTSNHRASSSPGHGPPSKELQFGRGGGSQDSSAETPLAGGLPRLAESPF

As to `CC(C)C[C@H](NC(=O)[C@H](Cc1c[nH]c2ccccc12)NC(=O)[C@H](CCCCNC(=O)CC[C@H](NC(=O)CC[C@H](NC(=O)COCCOCCNC(=O)COCCOCCNC(=O)CC[C@H](NC(=O)CCCCCCCCCCCCCCCCC(=O)O)C(=O)O)C(=O)O)C(=O)O)NC(=O)[C@@H](NC(=O)[C@H](Cc1ccccc1)NC(=O)[C@H](CC(=O)O)NC(=O)[C@H](CCC(N)=O)NC(=O)[C@H](C)NC(=O)[C@H](CCCNC(=N)N)NC(=O)[C@H](CCCNC(=N)N)NC(=O)[C@@H](NC(=O)[C@H](CC(=O)O)NC(=O)[C@H](CC(C)C)NC(=O)[C@H](Cc1ccc(O)cc1)NC(=O)[C@H](CCCNC(=N)N)NC(=O)[C@H](CO)NC(=O)[C@H](Cc1ccc(O)cc1)NC(=O)[C@H](CC(=O)O)NC(=O)[C@H](CO)NC(=O)[C@@H](NC(=O)[C@H](Cc1ccccc1)NC(=O)[C@@H](NC(=O)CNC(=O)[C@H](CCC(N)=O)NC(=O)[C@H](CO)NC(=O)[C@@H](N)Cc1c[nH]cn1)[C@@H](C)O)[C@@H](C)O)[C@@H](C)O)C(C)C)C(=O)N[C@@H](CC(C)C)C(=O)N[C@@H](CC(N)=O)C(=O)N[C@H](C(=O)O)[C@@H](C)O` [Example 10, N^ε24-[(4S)-4-carboxy-4-[[(4S)-4-carboxy-4-[[2-[2-[2-[[2-[2-[2-[[(4S)-4-carboxy-4-(17-carboxyheptadecanoylamino)butanoyl]amino]ethoxy]ethoxy]acetyl]amino]ethoxy]ethoxy]acetyl]amino]butanoyl]amino]butanoyl]-[Arg^12,Thr^16,Lys^24,Leu^27]-Glucagon] (H-HSQGTFTSDYSRYLDTRRAQDFVK([γGlu-γGlu-AEEA-AEEA-γGlu-C18 diacid])WLLNT-OH), the “Chemical stability [Purity loss/14 days 37 C.]” value in data set [1] is on record as 10.3%. The compound also displayed an EC50 at glucagon receptor of 0.031 nM.

Regarding `CC[C@H](C)[C@H](NC(=O)[C@H](CC(=O)O)NC(=O)[C@H](CC(C)C)NC(=O)[C@H](Cc1ccc(O)cc1)NC(=O)[C@H](CCCCN)NC(=O)[C@H](CO)NC(=O)[C@H](Cc1ccc(O)cc1)NC(=O)[C@H](CC(=O)O)NC(=O)[C@H](CO)NC(=O)[C@@H](NC(=O)[C@H](Cc1ccccc1)NC(=O)[C@@H](NC(=O)CNC(=O)[C@H](CCC(N)=O)NC(=O)[C@H](CO)NC(=O)[C@@H](N)Cc1c[nH]cn1)[C@@H](C)O)[C@@H](C)O)C(=O)N[C@@H](CCCNC(=N)N)C(=O)N[C@@H](CCCNC(=N)N)C(=O)N[C@@H](C)C(=O)N[C@@H](CCC(N)=O)C(=O)N[C@@H](CC(=O)O)C(=O)N[C@@H](Cc1ccccc1)C(=O)N[C@H](C(=O)N[C@@H](CCCCNC(=O)CC[C@H](NC(=O)CC[C@H](NC(=O)COCCOCCNC(=O)COCCOCCNC(=O)CC[C@H](NC(=O)CCCCCCCCCCCCCCCCC(=O)O)C(=O)O)C(=O)O)C(=O)O)C(=O)N[C@@H](Cc1c[nH]c2ccccc12)C(=O)N[C@@H](CC(C)C)C(=O)N[C@@H](CC(C)C)C(=O)N[C@@H](CO)C(=O)N[C@H](C(=O)O)[C@@H](C)O)C(C)C` [Example 11, N^ε24-[(4S)-4-carboxy-4-[[(4S)-4-carboxy-4-[[2-[2-[2-[[2-[2-[2-[[(4S)-4-carboxy-4-(17-carboxyheptadecanoylamino)butanoyl]amino]ethoxy]ethoxy]acetyl]amino]ethoxy]ethoxy]acetyl]amino]butanoyl]amino]butanoyl]-[Ile^16,Lys^24,Leu^27,Ser^28]-Glucagon], the “Chemical stability [Purity loss/14 days 37 C.]” value in data set [1] came to 6.2%. Besides, at glucagon receptor, the EC50 was 0.084 nM.

Turning to `CC(C)C[C@H](NC(=O)[C@H](Cc1c[nH]c2ccccc12)NC(=O)[C@H](CCCCNC(=O)CC[C@H](NC(=O)CC[C@H](NC(=O)COCCOCCNC(=O)COCCOCCNC(=O)CC[C@H](NC(=O)CCCCCCCCCCCCCCCCC(=O)O)C(=O)O)C(=O)O)C(=O)O)NC(=O)[C@@H](NC(=O)[C@H](Cc1ccccc1)NC(=O)[C@H](CC(=O)O)NC(=O)[C@H](CCC(N)=O)NC(=O)[C@H](C)NC(=O)[C@H](CCCNC(=N)N)NC(=O)[C@H](CCCNC(=N)N)NC(=O)[C@@H](NC(=O)[C@H](CC(=O)O)NC(=O)[C@H](CC(C)C)NC(=O)[C@H](Cc1ccc(O)cc1)NC(=O)[C@H](CCCCN)NC(=O)[C@H](CO)NC(=O)[C@H](Cc1ccc(O)cc1)NC(=O)[C@H](CC(=O)O)NC(=O)[C@H](CO)NC(=O)[C@@H](NC(=O)[C@H](Cc1ccccc1)NC(=O)[C@@H](NC(=O)CNC(=O)[C@H](CCC(N)=O)NC(=O)[C@H](CO)NC(=O)[C@@H](N)Cc1c[nH]cn1)[C@@H](C)O)[C@@H](C)O)[C@@H](C)O)C(C)C)C(=O)N[C@@H](CC(C)C)C(=O)N[C@@H](CO)C(=O)N[C@H](C(=O)O)[C@@H](C)O` [Example 12, N^ε24-[(4S)-4-carboxy-4-[[(4S)-4-carboxy-4-[[2-[2-[2-[[2-[2-[2-[[(4S)-4-carboxy-4-(17-carboxyheptadecanoylamino)butanoyl]amino]ethoxy]ethoxy]acetyl]amino]ethoxy]ethoxy]acetyl]amino]butanoyl]amino]butanoyl]-[Thr^16,Lys^24,Leu^27,Ser^28]-Glucagon], in data set [1], the “Chemical stability [Purity loss/14 days 37 C.]” value is 7.0%. Besides, it took 0.075 nM to reach a half-maximal effect at glucagon receptor (EC50).

Take `CC(C)C[C@H](NC(=O)[C@H](Cc1ccc(O)cc1)NC(=O)[C@H](CCCNC(=N)N)NC(=O)[C@H](CO)NC(=O)[C@H](Cc1ccc(O)cc1)NC(=O)[C@H](CC(=O)O)NC(=O)[C@H](CO)NC(=O)[C@@H](NC(=O)[C@H](Cc1ccccc1)NC(=O)[C@@H](NC(=O)CNC(=O)[C@H](CCC(N)=O)NC(=O)[C@H](CO)NC(=O)[C@@H](N)Cc1c[nH]cn1)[C@@H](C)O)[C@@H](C)O)C(=O)N[C@@H](CC(=O)O)C(=O)N[C@@H](Cc1ccccc1)C(=O)N[C@@H](CCCNC(=N)N)C(=O)N[C@@H](CCCNC(=N)N)C(=O)N[C@@H](C)C(=O)N[C@@H](CCC(N)=O)C(=O)N[C@@H](CC(=O)O)C(=O)N[C@@H](Cc1ccccc1)C(=O)N[C@H](C(=O)N[C@@H](CCCCNC(=O)CC[C@H](NC(=O)CC[C@H](NC(=O)COCCOCCNC(=O)COCCOCCNC(=O)CC[C@H](NC(=O)CCCCCCCCCCCCCCCCC(=O)O)C(=O)O)C(=O)O)C(=O)O)C(=O)N[C@@H](Cc1c[nH]c2ccccc12)C(=O)N[C@@H](CC(C)C)C(=O)N[C@@H](CC(C)C)C(=O)N[C@@H](CO)C(=O)N[C@H](C(=O)O)[C@@H](C)O)C(C)C` [Example 17, N^ε24-[(4S)-4-carboxy-4-[[(4S)-4-carboxy-4-[[2-[2-[2-[[2-[2-[2-[[(4S)-4-carboxy-4-(17-carboxyheptadecanoylamino)butanoyl]amino]ethoxy]ethoxy]acetyl]amino]ethoxy]ethoxy]acetyl]amino]butanoyl]amino]butanoyl]-[Arg^12,Phe^16,Lys^24,Leu^27,Ser^28]-Glucagon] (H-HSQGTFTSDYSRYLDFRRAQDFVK([γGlu-γGlu-AEEA-AEEA-γGlu-C18 diacid])WLLST-OH): in data set [1], the “Chemical stability [Purity loss/14 days 37 C.]” value amounted to 3.1%. The EC50 at glucagon receptor amounted to 1.64 nM.

With `CC(C)C[C@H](NC(=O)[C@H](CC(=O)O)NC(=O)[C@H](CC(C)C)NC(=O)[C@H](Cc1ccc(O)cc1)NC(=O)[C@H](CCCNC(=N)N)NC(=O)[C@H](CO)NC(=O)[C@H](Cc1ccc(O)cc1)NC(=O)[C@H](CC(=O)O)NC(=O)[C@H](CO)NC(=O)[C@@H](NC(=O)[C@H](Cc1ccccc1)NC(=O)[C@@H](NC(=O)CNC(=O)[C@H](CCC(N)=O)NC(=O)[C@H](CO)NC(=O)[C@@H](N)Cc1c[nH]cn1)[C@@H](C)O)[C@@H](C)O)C(=O)N[C@@H](CCCNC(=N)N)C(=O)N[C@@H](CCCNC(=N)N)C(=O)N[C@@H](C)C(=O)N[C@@H](CCC(N)=O)C(=O)N[C@@H](CC(=O)O)C(=O)N[C@@H](Cc1ccccc1)C(=O)N[C@H](C(=O)N[C@@H](CCCCNC(=O)CC[C@H](NC(=O)CC[C@H](NC(=O)COCCOCCNC(=O)COCCOCCNC(=O)CC[C@H](NC(=O)CCCCCCCCCCCCCCCCC(=O)O)C(=O)O)C(=O)O)C(=O)O)C(=O)N[C@@H](Cc1c[nH]c2ccccc12)C(=O)N[C@@H](CC(C)C)C(=O)N[C@@H](CC(C)C)C(=O)N[C@H](C(=O)N[C@H](C(=O)O)[C@@H](C)O)[C@@H](C)O)C(C)C` [Example 19, N^ε24-[(4S)-4-carboxy-4-[[(4S)-4-carboxy-4-[[2-[2-[2-[[2-[2-[2-[[(4S)-4-carboxy-4-(17-carboxyheptadecanoylamino)butanoyl]amino]ethoxy]ethoxy]acetyl]amino]ethoxy]ethoxy]acetyl]amino]butanoyl]amino]butanoyl]-[Arg^12,Leu^16,Lys^24,Leu^27,Thr^28]-Glucagon] (H-HSQGTFTSDYSRYLDLRRAQDFVK([γGlu-γGlu-AEEA-AEEA-γGlu-C18 diacid])WLLTT-OH), the “Chemical stability [Purity loss/14 days 37 C.]” value in data set [1] came to 4.3%. On glucagon receptor, the EC50 turned out to be 0.754 nM.
